In ChEMBL document CHEMBL5321200, “Discovery of the GSH responsive "Y-PROTACs" targeting ALK and CDK4/6 as a potential treatment for cancer” (Eur J Med Chem, 2023):
Active and inactive are the calls of the source. The calls are words filed in the database; no cut-off is given here.

What was measured:
[1] = target: T1, Protein cereblon/Cyclin-dependent kinase 4 (Homo sapiens, UniProt P11802+Q96SW2); assay: PROTAC activity at CRBN/CDK4 in human NCI-H3122 cells assessed as degradation of CDK4 protein at 5 uM pretreated with palbociclib for 4 hrs followed by compound addition and measured after 24 hrs by Western blot analysis; format: cell-based
T1 sequence (P11802 2-303 limits assumed): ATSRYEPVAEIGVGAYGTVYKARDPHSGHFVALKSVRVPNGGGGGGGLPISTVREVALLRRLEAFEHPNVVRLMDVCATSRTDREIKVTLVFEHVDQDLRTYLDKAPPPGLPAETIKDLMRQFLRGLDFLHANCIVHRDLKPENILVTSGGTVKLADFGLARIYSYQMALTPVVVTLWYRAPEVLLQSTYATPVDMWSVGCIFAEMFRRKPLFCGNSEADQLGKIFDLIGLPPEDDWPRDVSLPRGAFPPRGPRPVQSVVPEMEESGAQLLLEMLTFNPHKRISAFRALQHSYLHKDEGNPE
T1 sequence (Q96SW2 whole entry partner, the tested form may be a part): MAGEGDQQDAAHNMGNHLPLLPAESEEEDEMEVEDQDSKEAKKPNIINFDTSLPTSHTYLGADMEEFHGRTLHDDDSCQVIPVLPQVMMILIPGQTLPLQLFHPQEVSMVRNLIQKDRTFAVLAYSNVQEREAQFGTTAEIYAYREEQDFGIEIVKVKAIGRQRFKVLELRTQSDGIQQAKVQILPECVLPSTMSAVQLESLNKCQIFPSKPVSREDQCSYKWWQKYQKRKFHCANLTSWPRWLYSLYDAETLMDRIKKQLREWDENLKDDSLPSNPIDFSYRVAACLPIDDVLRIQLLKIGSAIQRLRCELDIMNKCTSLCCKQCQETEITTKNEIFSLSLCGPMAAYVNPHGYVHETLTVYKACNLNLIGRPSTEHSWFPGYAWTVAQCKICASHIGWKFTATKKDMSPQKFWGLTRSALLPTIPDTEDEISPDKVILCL

[2] = target: T2, Protein cereblon/ALK tyrosine kinase receptor/Echinoderm microtubule-associated protein-like 4 (Homo sapiens) (UniProt Q9UM73+Q9HC35+Q96SW2); assay: PROTAC activity at CRBN/EML4-ALK in human NCI-H3122 cells assessed as degradation of EML4-ALK fusion protein at 5 uM pretreated with pomalidomide for 4 hrs followed by compound addition and measured after 24 hrs by Western blot analysis; format: cell-based
T2 sequence (Q96SW2 whole entry partner, the tested form may be a part): as above
T2 sequence (Q9HC35 whole entry partner, the tested form may be a part): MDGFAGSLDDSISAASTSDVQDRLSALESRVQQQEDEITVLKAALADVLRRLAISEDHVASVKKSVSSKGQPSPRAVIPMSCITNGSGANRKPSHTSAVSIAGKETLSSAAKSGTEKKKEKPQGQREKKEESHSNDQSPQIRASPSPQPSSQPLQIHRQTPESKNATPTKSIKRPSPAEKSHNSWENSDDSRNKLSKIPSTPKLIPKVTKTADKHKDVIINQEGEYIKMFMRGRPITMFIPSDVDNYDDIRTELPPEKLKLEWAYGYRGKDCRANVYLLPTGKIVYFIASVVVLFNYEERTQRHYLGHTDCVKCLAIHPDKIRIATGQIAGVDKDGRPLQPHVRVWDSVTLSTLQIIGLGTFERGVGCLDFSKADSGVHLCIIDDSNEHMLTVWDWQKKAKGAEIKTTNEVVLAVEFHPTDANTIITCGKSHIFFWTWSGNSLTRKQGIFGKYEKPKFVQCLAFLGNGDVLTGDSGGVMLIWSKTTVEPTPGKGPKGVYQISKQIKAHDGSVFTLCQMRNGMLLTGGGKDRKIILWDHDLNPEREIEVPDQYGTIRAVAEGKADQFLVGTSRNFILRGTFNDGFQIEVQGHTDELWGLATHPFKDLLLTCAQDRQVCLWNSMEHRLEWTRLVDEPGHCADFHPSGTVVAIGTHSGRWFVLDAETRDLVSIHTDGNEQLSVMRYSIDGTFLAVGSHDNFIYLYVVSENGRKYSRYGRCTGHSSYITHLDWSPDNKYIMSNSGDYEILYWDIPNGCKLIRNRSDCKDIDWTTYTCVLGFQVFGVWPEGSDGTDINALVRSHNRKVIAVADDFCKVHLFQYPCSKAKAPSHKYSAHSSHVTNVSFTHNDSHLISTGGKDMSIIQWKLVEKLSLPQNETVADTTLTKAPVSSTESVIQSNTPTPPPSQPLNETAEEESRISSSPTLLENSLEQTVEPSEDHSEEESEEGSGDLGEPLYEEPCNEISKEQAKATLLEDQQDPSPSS
T2 sequence (Q9UM73 19-1620 limits assumed): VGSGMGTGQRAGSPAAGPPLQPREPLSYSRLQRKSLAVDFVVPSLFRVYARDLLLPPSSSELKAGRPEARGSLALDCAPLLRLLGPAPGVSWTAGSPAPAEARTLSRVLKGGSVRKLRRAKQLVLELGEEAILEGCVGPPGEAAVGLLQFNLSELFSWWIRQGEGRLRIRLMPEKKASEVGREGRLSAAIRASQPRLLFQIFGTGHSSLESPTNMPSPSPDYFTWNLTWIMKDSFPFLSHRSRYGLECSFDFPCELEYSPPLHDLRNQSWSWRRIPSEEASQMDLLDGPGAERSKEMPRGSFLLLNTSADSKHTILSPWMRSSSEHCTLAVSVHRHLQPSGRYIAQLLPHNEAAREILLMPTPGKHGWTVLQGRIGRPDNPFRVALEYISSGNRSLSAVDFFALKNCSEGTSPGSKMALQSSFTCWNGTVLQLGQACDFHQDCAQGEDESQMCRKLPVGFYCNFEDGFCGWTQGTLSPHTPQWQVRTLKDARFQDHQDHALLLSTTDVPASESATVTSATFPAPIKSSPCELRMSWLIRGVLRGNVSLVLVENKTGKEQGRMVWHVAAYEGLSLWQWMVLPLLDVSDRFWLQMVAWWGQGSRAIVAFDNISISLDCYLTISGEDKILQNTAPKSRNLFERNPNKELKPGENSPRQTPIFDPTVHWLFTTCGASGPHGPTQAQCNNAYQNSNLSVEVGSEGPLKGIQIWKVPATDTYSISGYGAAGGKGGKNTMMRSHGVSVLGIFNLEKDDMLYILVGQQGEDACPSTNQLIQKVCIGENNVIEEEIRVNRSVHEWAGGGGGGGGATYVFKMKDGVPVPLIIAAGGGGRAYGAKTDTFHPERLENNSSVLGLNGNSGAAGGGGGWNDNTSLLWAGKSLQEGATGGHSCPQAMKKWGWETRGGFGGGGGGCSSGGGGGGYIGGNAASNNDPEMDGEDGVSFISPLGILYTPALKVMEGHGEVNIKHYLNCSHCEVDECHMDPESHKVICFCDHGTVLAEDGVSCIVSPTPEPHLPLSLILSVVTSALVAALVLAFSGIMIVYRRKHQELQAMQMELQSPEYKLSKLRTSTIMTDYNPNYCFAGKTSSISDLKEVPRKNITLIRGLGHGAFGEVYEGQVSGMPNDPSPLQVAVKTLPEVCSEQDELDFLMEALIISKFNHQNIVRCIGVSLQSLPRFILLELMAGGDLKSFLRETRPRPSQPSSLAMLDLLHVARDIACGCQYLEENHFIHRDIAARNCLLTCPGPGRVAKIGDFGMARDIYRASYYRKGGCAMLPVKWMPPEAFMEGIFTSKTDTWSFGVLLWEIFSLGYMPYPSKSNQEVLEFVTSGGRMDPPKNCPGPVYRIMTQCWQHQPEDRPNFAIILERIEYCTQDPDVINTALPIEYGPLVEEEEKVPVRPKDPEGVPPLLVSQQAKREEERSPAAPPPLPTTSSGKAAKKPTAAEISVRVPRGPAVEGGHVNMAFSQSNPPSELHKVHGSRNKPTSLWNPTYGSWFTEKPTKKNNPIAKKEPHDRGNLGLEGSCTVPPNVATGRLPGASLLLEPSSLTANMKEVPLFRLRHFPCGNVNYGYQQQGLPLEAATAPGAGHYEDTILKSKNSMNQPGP

[3] = target: T1, Protein cereblon/Cyclin-dependent kinase 4; assay: PROTAC activity at CRBN/CDK4 in human NCI-H3122 cells assessed as decrease in CDK4 protein level at 0.1 to 20 uM incubated for 24 hrs in presence of GSH by Western blot analysis; format: cell-based; conditions: dose 0.1-20 µM
[4] = Toxicity in BALB/c nude mouse xenografted with human NCI-H3122 cells assessed as tolerance at 25 to 75 mg/kg, IG administered once daily for 18 days; format: organism-based; conditions: in vivo, po, 432 h, dose 25-75 mg/kg, time 18 day
[5] = target: T2, Protein cereblon/ALK tyrosine kinase receptor/Echinoderm microtubule-associated protein-like 4 (Homo sapiens); assay: PROTAC activity at CRBN/EML4-ALK in human NCI-H3122 cells assessed as reduction in EML4-ALK fusion protein level at 10 uM incubated for 24 hrs by Western blot analysis; format: cell-based
[6] = Toxicity in BALB/c nude mouse xenografted with human NCI-H3122 cells assessed as effect on visceral heart morphology at 75 mg/kg, IG administered once daily for 18 days and measured after 12 hrs of last dose by H and E staining based analysis; format: organism-based; conditions: in vivo, po, 444 h
NCI-H3122 [7] = assay: Antiproliferative activity against human NCI-H3122 cells assessed as inhibition of cell growth pretreated with GSH followed by compound addition and incubated for 3 to 5 days by MTT assay; format: functional, cell-based
NCI-H3122 [8] = assay: Induction of apoptosis in human NCI-H3122 cells assessed as late apoptotic cells at 1.25 uM incubated for 48 hrs by Annexin V-FITC/propidium iodide staining based flow cytometric analysis (reference value: 3.06%); format: functional
[9] = target: T3, Protein cereblon/ALK tyrosine kinase receptor (Homo sapiens) (UniProt Q9UM73+Q96SW2); assay: PROTAC activity at CRBN/ALK in human NCI-H3122 cells assessed as degradation of ALK protein at 5 uM pretreated with ceritinib for 4 hrs followed by compound addition and measured after 24 hrs by Western blot analysis; format: cell-based
T3 sequence (Q96SW2 whole entry partner): as the sequence (Q96SW2 whole entry partner, the tested form may be a part) above
T3 sequence (Q9UM73 19-1620 limits assumed): as the sequence (Q9UM73 19-1620 limits assumed) above

[10] = target: Protein cereblon/Cyclin-dependent kinase 6 (Homo sapiens) (UniProt Q00534+Q96SW2); assay: PROTAC activity at CRBN/CDK6 in human NCI-H3122 cells assessed as reduction in CDK6 protein level at 1 to 10 uM incubated for 24 hrs by Western blot analysis; format: cell-based; conditions: dose 1-10 µM
Sequence of Protein cereblon/Cyclin-dependent kinase 6 (Homo sapiens) (Q00534 whole entry, looked up): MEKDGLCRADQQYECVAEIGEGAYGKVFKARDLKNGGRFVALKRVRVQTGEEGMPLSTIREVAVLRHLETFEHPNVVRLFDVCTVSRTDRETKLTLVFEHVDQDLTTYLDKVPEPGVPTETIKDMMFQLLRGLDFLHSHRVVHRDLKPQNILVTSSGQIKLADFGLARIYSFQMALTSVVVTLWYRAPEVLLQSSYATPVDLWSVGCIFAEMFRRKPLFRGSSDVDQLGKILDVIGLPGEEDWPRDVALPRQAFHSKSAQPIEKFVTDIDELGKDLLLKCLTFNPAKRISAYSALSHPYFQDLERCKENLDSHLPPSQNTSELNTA
Sequence of Protein cereblon/Cyclin-dependent kinase 6 (Homo sapiens) (Q96SW2 whole entry, looked up): as the sequence (Q96SW2 whole entry partner, the tested form may be a part) above

NCI-H2228 = assay: Antiproliferative activity against human NCI-H2228 cells assessed as inhibition of cell growth incubated for 3 to 5 days by MTT assay; format: functional, cell-based
NCI-H3122 [11] = assay: Antiproliferative activity against human NCI-H3122 cells assessed as inhibition of cell growth incubated for 3 to 5 days by MTT assay; format: functional, cell-based
[12] = target: T3, Protein cereblon/ALK tyrosine kinase receptor (Homo sapiens); assay: PROTAC activity at CRBN/ALK in human NCI-H2228 cells assessed as reduction in ALK protein level by Western blot analysis; format: cell-based
[13] = target: Cyclin-dependent kinase 4 (Homo sapiens) (UniProt P11802); assay: Inhibition of CDK4 (unknown origin) at 0.05 uM by LANCE Ultra TR-FRET assay relative to control
Sequence of Cyclin-dependent kinase 4 (Homo sapiens) (P11802 whole entry): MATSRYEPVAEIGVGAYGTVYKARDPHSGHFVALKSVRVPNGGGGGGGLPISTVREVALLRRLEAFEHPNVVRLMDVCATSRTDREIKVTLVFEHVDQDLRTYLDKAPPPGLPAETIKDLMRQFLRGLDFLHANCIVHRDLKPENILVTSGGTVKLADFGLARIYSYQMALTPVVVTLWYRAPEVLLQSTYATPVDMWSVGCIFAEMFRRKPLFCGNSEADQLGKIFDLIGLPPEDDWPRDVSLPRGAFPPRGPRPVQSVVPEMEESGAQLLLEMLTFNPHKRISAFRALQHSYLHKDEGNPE

[14] = target: T1, Protein cereblon/Cyclin-dependent kinase 4; assay: PROTAC activity at CRBN/CDK4 in human NCI-H3122 cells assessed as induction of CDK4 protein degradation at 10 uM incubated for 24 hrs by Western blot analysis relative to control; format: cell-based
[15] = target: Cyclin-dependent kinase 6 (Homo sapiens) (UniProt Q00534); assay: Inhibition of CDK6 (unknown origin) at 0.05 uM by LANCE Ultra TR-FRET assay relative to control
Sequence of Cyclin-dependent kinase 6 (Homo sapiens) (Q00534 whole entry): as the sequence (Q00534 whole entry, looked up) above

NCI-H3122 [16] = assay: Inhibition of colony formation in human NCI-H3122 cells assessed as reduction in number of colonies at 0.312 uM measured after 10 days by crystal violet staining based microscopic analysis relative to control; format: functional; conditions: NCI-H3122, 240 h, time 10 day
NCI-H3122 [17] = assay: Cell cycle arrest in human NCI-H3122 cells assessed as accumulation of cells at S phase at 0.312 uM incubated for 24 hrs by propidium iodide staining based flow cytometric analysis (reference value: 29.94%); format: functional
NCI-H3122 [18] = assay: Induction of apoptosis in human NCI-H3122 cells assessed as necrotic cells at 0.312 uM incubated for 48 hrs by Annexin V-FITC/propidium iodide staining based flow cytometric analysis (reference value: 0.57%); format: functional
[19] = Toxicity in BALB/c nude mouse xenografted with human NCI-H3122 cells assessed as effect on heart function at 75 mg/kg, IG administered once daily for 18 days and measured after 12 hrs of last dose by H and E staining based assay; format: organism-based; conditions: in vivo, po, 444 h
[20] = target: ALK tyrosine kinase receptor (Homo sapiens) (UniProt Q9UM73); assay: Inhibition of ALK (unknown origin) at 0.05 uM by LANCE Ultra TR-FRET assay relative to control
Sequence of ALK tyrosine kinase receptor (Homo sapiens) (Q9UM73 19-1620 limits assumed): as the sequence (Q9UM73 19-1620 limits assumed) above

NCI-H3122 [21] = assay: Induction of apoptosis in human NCI-H3122 cells assessed as early apoptotic cells at 0.625 uM incubated for 48 hrs by Annexin V-FITC/propidium iodide staining based flow cytometric analysis (reference value: 0.71%); format: functional
[22] = Toxicity in BALB/c nude mouse xenografted with human NCI-H3122 cells assessed as effect on lung function at 75 mg/kg, IG administered once daily for 18 days by H and E staining based assay; format: organism-based; conditions: in vivo, po, 432 h, time 18 day
[23] = Cytotoxicity against human L02 cells assessed as inhibition of cell growth pretreated with GSH followed by compound addition and incubated for 3 to 5 days by MTT assay; format: toxicity, cell-based
[24] = target: T1, Protein cereblon/Cyclin-dependent kinase 4; assay: PROTAC activity at CRBN/CDK4 in human NCI-H3122 cells assessed as reduction in CDK4 protein level at 5 uM incubated for 16 hrs followed by compound washout and measured after 8 hrs by Western blot analysis; format: cell-based
[25] = Toxicity in BALB/c nude mouse xenografted with human NCI-H3122 cells assessed as effect on spleen function at 75 mg/kg, IG administered once daily for 18 days by H and E staining based assay; format: organism-based; conditions: in vivo, po, 432 h, time 18 day
[26] = Toxicity in BALB/c nude mouse xenografted with human NCI-H3122 cells assessed as effect on visceral liver morphology at 75 mg/kg, IG administered once daily for 18 days and measured after 12 hrs of last dose by H and E staining based analysis; format: organism-based; conditions: in vivo, po, 444 h
NCI-H3122 [27] = assay: Inhibition of colony formation in human NCI-H3122 cells assessed as reduction in number of colonies measured after 10 days by crystal violet staining based microscopic analysis; format: functional, cell-based; conditions: dose 0.039-0.312 µM, time 10.0 day
[28] = Toxicity in BALB/c nude mouse xenografted with human NCI-H3122 cells assessed as reduction in body weight at 25 to 75 mg/kg, IG administered once daily for 18 days; format: organism-based; conditions: in vivo, po, 432 h, dose 25-75 mg/kg, time 18 day

Activity [1]: inactive
Activity [2]: inactive
Activity [3]: inactive
Activity [5]: Active
IC50 (NCI-H3122 [7]): 90 nM
Activity [9]: inactive
Activity [10]: inactive
IC50 (NCI-H2228): 5560 nM
IC50 (NCI-H3122 [11]): 140 nM
Activity [12]: Active
inhibition [13]: 54.9%
Activity [14]: 70%
inhibition [15]: 92%
inhibition [20]: 68.3%
Activity [24]: inactive
Compound: CC(=O)c1c(C)c2cnc(Nc3ccc(N4CCN(CC(=O)NCCSSCCN(CC(=O)NCCNc5cccc6c5C(=O)N(C5CCC(=O)NC5=O)C6=O)C(=O)CCCCCCC(=O)N5CCC(c6cc(OC(C)C)c(Nc7ncc(Cl)c(Nc8ccccc8S(=O)(=O)C(C)C)n7)cc6C)CC5)CC4)cn3)nc2n(C2CCCC2)c1=O (centres undefined)
Activity [4]: Non-Toxic
Activity [6]: Non-Toxic
Activity (NCI-H3122 [8]): 10.54%
inhibition at 0.312 µM (NCI-H3122 [16]): 100%
Activity (NCI-H3122 [17]): 17.52%
Activity (NCI-H3122 [18]): 0.6%
Activity [19]: Non-Toxic
Activity (NCI-H3122 [21]): 0.88%
Activity [22]: Non-Toxic
IC50 [23]: 12700 nM
Activity [25]: Non-Toxic
Activity [26]: Non-Toxic
inhibition (NCI-H3122 [27]): Dose-Dependent Effect
Activity [28]: Non-Toxic
